IC50 data for 15 molecules are collected here from patent publication US11401286B2 (Tetra Discovery Partners, LLC, priority 2012, dated 2022).

The structures appear in SMILES notation. Structures can show the parent of a compound that is named as a salt.

Chain of PDE4D7 (Q08499 other isoform, or with tags, fused parts or gaps): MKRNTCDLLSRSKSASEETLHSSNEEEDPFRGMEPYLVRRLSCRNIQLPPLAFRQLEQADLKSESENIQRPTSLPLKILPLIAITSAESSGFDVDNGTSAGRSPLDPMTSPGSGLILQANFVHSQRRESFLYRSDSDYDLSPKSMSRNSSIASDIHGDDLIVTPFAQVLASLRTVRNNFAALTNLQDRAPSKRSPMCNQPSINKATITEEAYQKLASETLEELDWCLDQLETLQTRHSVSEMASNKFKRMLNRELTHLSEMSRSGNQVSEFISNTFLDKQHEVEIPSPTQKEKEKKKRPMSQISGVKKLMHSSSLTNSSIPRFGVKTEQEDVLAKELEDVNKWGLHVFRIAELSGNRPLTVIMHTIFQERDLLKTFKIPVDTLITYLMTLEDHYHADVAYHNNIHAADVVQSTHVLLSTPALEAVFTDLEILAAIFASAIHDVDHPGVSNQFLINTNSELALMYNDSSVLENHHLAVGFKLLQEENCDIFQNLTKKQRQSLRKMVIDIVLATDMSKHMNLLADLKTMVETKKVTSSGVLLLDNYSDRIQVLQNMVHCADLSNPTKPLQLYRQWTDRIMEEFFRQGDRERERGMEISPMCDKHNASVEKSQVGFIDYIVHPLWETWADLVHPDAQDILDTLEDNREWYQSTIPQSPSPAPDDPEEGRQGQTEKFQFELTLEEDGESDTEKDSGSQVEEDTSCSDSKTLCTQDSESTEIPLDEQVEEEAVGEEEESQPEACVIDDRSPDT

The test has as its target PDE4D7 (Homo sapiens (Human), UniProt Q08499). The note with it: read-out: PDE4D7 IC50; PDE4D7 without asterisk.
In the case of `OCCc1ccc(Nc2cc(C3CCCC3)nc3c2CCC3)cc1` [Example 249, 2-(4-((2-cyclopentyl-6,7-dihydro-5H-cyclopenta[b]pyridin-4-yl)amino)phenyl)ethanol hydrochloride], the half-maximal inhibitory concentration (IC50) – broadly, the concentration that gives 50% inhibition – was more than 1000 nM.

For `CCc1c(C)nc(-c2ccc(Cl)s2)nc1Nc1ccc(Cc2nc(C(N)=O)c[nH]2)cc1` [Example 310, 2-[[4-[[2-(5-Chloro-2-thienyl)-5-ethyl-6-methyl-pyrimidin-4-yl]amino]phenyl]methyl]-1H-imidazole-4-carboxamide], the concentration for half-maximal inhibition (IC50) is more than 1000 nM.

As to `CCc1nc(Nc2ccc(C(=O)O)cc2)nc(-c2ccc(Cl)s2)n1` [Example 30, 4-(4-(5-chlorothiophen-2-yl)-6-ethyl-1,3,5-triazin-2-ylamino)benzoic acid], the IC50 is less than 1000 nM.

Consider `C[C@@H](O)Cc1ccc(Nc2nc(-c3cccc(Cl)c3)nc3c2CCC3)cc1` [Example 172, (R)-1-(4-((2-(3-Chlorophenyl)-6,7-dihydro-5H-cyclopenta[d]pyrimidin-4-yl)amino)phenyl)propan-2-ol], for which the IC50 was more than 1000 nM.

Turning to `Clc1cccc(-c2nc3c(c(Nc4ccc(Cc5nn[nH]n5)cc4)n2)SCCC3)c1` [Example 313, 2-(3-Chlorophenyl)-N-[4-(2H-tetrazol-5-ylmethyl)phenyl]-7,8-dihydro-6H-thiopyrano[3,2-d]pyrimidin-4-amine], the IC50 is less than 1000 nM.

Take `CCc1c(C)nc(-c2ccc(Cl)s2)nc1Nc1ccc2c(c1)COB2O` [Example 71, 2-(5-chloro-2-thienyl)-5-ethyl-N-(1-hydroxy-3H-2,1-benzoxaborol-5-yl)-6-methyl-pyrimidin-4-amine]: the IC50 was less than 1000 nM.

Take `CCc1cc(Cc2ccc(CC(N)=O)cc2)nc(C2CCCC2)n1` [Example 226, 2-(4-((2-Cyclopentyl-6-ethylpyrimidin-4-yl)methyl)phenyl)acetamide]: the IC50 was less than 1000 nM.

As to `CN(C)C(=O)Cc1ccc(Nc2cc(-c3cccc(Cl)c3)nc3c2CCC3)cc1` [Example 121, 2-(4-((2-(3-chlorophenyl)-6,7-dihydro-5H-cyclopenta[b]pyridin-4-yl)amino)phenyl)-N,N-dimethylacetamide hydrochloride], the concentration for half-maximal inhibition (IC50) is less than 1000 nM.

Consider `CC(=O)Cc1ccc(Nc2nc(-c3cccc(Cl)c3)nc3c2CCC3)cc1` [Example 164, 1-(4-((2-(3-Chlorophenyl)-6,7-dihydro-5H-cyclopenta[d]pyrimidin-4-yl)amino)phenyl)propan-2-one], for which the IC50 was more than 1000 nM.

For the molecule `O=C(O)Cc1ccc(Nc2nc(-c3ccc(Cl)s3)nc(C3CC3)n2)cc1` [Example 34, 2-(4-(4-(5-chlorothiophen-2-yl)-6-cyclopropyl-1,3,5-triazin-2-ylamino)phenyl)acetic acid], the IC50 is more than 1000 nM.

In the case of `NC(=O)Cc1ccc(Cc2cc(OC3CCCC3)nc3c2CCC3)cc1` [Example 131, 2-(4-((2-(Cyclopentyloxy)-6,7-dihydro-5H-cyclopenta[b]pyridin-4-yl)methyl)phenyl)acetamide hydrochloride], the IC50 is more than 1000 nM.

Take `NC(=O)Cc1ccc(Nc2cc(SC3CCCC3)nc3c2CCC3)cc1` [Example 258, 2-(4-((2-(Cyclopentylthio)-6,7-dihydro-5H-cyclopenta[b]pyridin-4-yl)amino)phenyl)acetamide]: the IC50 is more than 1000 nM.

Consider `CCc1nc(Nc2ccc(CC(=O)O)cc2)nc(-c2ccc(Cl)s2)n1` [Example 27, 2-(4-((4-(5-chlorothiophen-2-yl)-6-ethyl-1,3,5-triazin-2-yl)amino)phenyl)acetic acid], for which the IC50 is more than 1000 nM.

As to `OCCc1ccc(Nc2cc(C3CCCCC3)nc3c2CCC3)cc1` [Example 251, 2-(4-((2-cyclohexyl-6,7-dihydro-5H-cyclopenta[b]pyridin-4-yl)amino)phenyl)ethanol hydrochloride], the concentration for half-maximal inhibition (IC50) is more than 1000 nM.

On to `NC(=O)Cc1ccc(Nc2cc(N3CCCC3)nc3c2CCC3)cc1` [Example 236, 2-(4-((2-(Pyrrolidin-1-yl)-6,7-dihydro-5H-cyclopenta[b]pyridin-4-yl)amino)phenyl)acetamide hydrochloride], for which the IC50 was more than 1000 nM.
